Experimental data: US8835571B2, “Fatty acid derivative-polymer conjugate” (Sucampo AG, priority 2012, dated 2014)

Test: incorporation of unoprostone isopropyl into MPEG-hexPLA polymer micelles
Type: physicochemical
Method: The incorporation studies were carried out by a standard formulation protocol. Briefly, a defined amount of the provided unoprostone isopropyl ethanol solution was taken and the ethanol rapidly evaporated, the remaining compound was re-dissolved together with the MPEG-hexPLA excipient in acetone and added dropwise under sonication into water, followed by evaporation of the organic solvent and equilibration of the micelle solution overnight.
As it can be seen, for loadings up to 500 mg unoprostone isopropyl per gram MPEGhexPLA, loading efficiencies higher than 80% could be obtained by this simple procedure (FIG. 1), corresponding to 2.22 mg drug per mL formulation (FIG. 2). […] The latter formulations with a minimum of drug loss in the formulation procedure gave transparent formulations.

obtained drug concentration in formulation (loading 500 mg per gram MPEGhexPLA (FIG. 2)): 2.22 mg drug per mL formulation
Incorporation efficiencies (loadings up to 300 mg/g): > 90%
obtained drug concentration in formulation (loadings up to 300 mg/g): ≤ 1.67 mg/mL
loading efficiencies (loadings up to 500 mg unoprostone isopropyl per gram MPEGhexPLA (FIG. 1)): higher than 80%
SMILES: CCCCCCCC(=O)CC[C@@H]1[C@@H](C/C=C\CCCC(=O)OC(C)C)[C@@H](O)C[C@H]1O [unoprostone isopropyl, (+)-isopropyl (Z)-7-[(1R,2R,3R,5S)-3,5-dihydroxy-2-(3-oxodecyl)cyclopentyl]hept-5-enoate]
